Experiments:
Type in all cases: biochemical
PAD4 = biological target: T1, PAD4 (Homo sapiens, UniProt Q9UM07); assay: Inactivation kinetics, PAD4; conditions: for kinact/KI: a: single kobs determined, b: from a linear fit; for Fold PAD4 Selectivity: kinact/KI relative to least inhibited isozyme (1.0)
T1 construct: made in house
How it was run: (§1)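 PAD1, 2 or 4 (2.0 μM) or PAD3 (5.0 μM) preincubated at 37 °C with varying inhibitor in 50 mM HEPES, 10 mM CaCl2, 2 mM DTT, pH 7.6. Timed aliquots assayed 15 min with 10 mM BAEE (BAA for PAD3); citrulline quantified by COLDER.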

PAD3 = biological target: T2, PAD3 (Homo sapiens, UniProt Q9ULW8); assay: Inactivation kinetics, PAD3; conditions: for kinact/KI: a: single kobs determined; for Fold PAD3 Selectivity: kinact/KI relative to least inhibited isozyme (1.0)
T2 construct: made in house
T2 sequence (Q9ULW8 1-664): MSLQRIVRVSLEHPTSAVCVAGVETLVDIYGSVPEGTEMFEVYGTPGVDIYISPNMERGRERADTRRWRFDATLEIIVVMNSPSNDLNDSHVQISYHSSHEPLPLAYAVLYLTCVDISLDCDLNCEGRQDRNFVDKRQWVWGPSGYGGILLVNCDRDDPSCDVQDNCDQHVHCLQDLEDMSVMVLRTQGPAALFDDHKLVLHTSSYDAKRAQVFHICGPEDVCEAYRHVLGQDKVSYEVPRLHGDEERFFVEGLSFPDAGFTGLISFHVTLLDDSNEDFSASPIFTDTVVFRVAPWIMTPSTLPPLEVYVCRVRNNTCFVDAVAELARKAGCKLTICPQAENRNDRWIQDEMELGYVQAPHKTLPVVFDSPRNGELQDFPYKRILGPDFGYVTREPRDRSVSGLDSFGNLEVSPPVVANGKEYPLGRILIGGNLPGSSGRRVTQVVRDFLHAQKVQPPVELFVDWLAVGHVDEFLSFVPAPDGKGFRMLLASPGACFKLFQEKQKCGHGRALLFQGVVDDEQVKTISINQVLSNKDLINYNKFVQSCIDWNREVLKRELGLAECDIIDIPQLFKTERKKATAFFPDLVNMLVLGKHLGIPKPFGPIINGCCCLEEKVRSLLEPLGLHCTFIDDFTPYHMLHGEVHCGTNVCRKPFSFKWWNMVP
How it was run: as §1

PAD1 = biological target: T3, PAD1 (Homo sapiens, UniProt Q9ULC6); assay: Inactivation kinetics, PAD1; conditions: for kinact/KI: a: single kobs determined, b: from a linear fit; for Fold PAD1 Selectivity: kinact/KI relative to least inhibited isozyme (1.0)
T3 construct: made in house
T3 sequence (Q9ULC6 1-663): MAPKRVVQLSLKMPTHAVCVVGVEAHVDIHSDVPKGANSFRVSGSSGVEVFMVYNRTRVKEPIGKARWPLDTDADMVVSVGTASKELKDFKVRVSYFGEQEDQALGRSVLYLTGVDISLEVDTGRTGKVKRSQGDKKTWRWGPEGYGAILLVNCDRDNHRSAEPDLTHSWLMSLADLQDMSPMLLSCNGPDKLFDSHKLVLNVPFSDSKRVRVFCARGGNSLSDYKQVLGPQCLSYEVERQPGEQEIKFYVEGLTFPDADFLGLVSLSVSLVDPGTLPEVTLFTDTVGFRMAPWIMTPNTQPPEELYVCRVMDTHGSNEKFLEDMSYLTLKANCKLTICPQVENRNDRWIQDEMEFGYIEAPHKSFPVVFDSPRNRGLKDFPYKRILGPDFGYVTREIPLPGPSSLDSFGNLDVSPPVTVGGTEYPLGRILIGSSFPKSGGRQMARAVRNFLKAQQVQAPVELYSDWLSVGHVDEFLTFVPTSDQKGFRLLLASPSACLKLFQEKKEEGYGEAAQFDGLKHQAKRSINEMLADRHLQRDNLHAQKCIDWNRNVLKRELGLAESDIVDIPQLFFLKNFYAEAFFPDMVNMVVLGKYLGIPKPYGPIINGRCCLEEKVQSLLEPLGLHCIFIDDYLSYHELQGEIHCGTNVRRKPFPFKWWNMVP
How it was run: as §1

PAD2 = biological target: T4, PAD2 (Homo sapiens, UniProt Q9Y2J8); assay: Inactivation kinetics, PAD2; conditions: for kinact/KI: a: single kobs determined, b: from a linear fit, other footnotes: from kinact and KI; for Fold PAD2 Selectivity: kinact/KI relative to least inhibited isozyme (1.0); for Ki / kinact: PAD2, table footnote
T4 construct: made in house
T4 sequence (Q9Y2J8 whole entry): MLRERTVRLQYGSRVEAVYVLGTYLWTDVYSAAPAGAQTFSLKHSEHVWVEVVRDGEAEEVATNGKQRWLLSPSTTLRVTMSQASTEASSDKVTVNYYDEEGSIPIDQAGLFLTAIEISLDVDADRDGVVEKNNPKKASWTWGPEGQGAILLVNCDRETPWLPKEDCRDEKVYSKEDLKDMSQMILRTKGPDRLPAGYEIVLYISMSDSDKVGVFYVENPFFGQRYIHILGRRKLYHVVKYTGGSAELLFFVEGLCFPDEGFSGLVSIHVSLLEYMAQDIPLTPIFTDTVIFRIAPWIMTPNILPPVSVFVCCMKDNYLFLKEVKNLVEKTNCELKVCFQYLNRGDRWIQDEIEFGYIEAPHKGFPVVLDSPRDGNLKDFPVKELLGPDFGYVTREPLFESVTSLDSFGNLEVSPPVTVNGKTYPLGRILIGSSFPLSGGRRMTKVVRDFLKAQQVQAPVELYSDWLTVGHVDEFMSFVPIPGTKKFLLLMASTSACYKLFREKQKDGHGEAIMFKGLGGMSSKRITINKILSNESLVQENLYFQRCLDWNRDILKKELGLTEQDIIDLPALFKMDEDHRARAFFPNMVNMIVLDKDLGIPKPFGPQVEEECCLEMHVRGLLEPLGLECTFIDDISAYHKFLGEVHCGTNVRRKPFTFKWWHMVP
How it was run: as §1

T1 sequence (Q9UM07 whole entry): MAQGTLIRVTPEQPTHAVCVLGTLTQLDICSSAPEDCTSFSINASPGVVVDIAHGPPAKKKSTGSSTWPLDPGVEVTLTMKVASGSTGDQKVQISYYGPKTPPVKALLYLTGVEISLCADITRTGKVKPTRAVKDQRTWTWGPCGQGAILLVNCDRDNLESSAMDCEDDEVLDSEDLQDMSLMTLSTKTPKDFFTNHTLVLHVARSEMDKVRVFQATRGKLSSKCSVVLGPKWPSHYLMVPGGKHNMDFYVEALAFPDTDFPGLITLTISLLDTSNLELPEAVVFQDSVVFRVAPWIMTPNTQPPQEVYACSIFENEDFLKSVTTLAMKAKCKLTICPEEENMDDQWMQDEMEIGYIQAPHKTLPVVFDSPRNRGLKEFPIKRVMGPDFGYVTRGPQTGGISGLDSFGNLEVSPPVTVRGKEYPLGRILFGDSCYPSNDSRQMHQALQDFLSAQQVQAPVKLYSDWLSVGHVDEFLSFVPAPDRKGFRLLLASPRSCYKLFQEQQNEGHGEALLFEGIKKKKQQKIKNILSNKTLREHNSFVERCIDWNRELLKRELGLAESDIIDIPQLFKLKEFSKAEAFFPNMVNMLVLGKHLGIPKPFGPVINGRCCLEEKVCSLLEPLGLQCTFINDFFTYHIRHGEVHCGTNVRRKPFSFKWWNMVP

Compound	kinact/KI (PAD4)	Fold PAD4 Selectivity (PAD4)	kinact/KI (PAD3)	Fold PAD3 Selectivity (PAD3)	kinact/KI (PAD1)	Fold PAD1 Selectivity (PAD1)	kinact/KI (PAD2)	Fold PAD2 Selectivity (PAD2)	Ki (PAD2)	kinact (PAD2)
CCn1c([C@H](CCCNC(=N)CCl)NC(=O)c2cccc3c2C(=O)NC3)nc2ccccc21 [Compound 7f, N1-(3-oxoisoindoline)benzol-N5-(2-chloro-1-iminoethyl)-1-(1-ethyl-benzo[d]imidazol-2-yl)-L-ornithine]	210 M⁻¹ s⁻¹	1.0 fold	377 M⁻¹ s⁻¹	1.8 fold	2200 M⁻¹ s⁻¹	10 fold	1010 M⁻¹ s⁻¹	4.8 fold	–	–
CC(C)n1c([C@H](CCCNC(=N)CF)NC(=O)c2cccc3c2C(=O)NC3)nc2ccccc21 [Compound 7g, N1-(3-oxoisoindoline)benzol-N5-(2-fluoro-1-iminoethyl)-1-(1-isopropyl-benzo[d]imidazol-2-yl)-L-ornithine]	20.5 M⁻¹ s⁻¹	2.4 fold	8.5 M⁻¹ s⁻¹	1.0 fold	104 M⁻¹ s⁻¹	12 fold	172 M⁻¹ s⁻¹	20 fold	–	–
CC(C)n1c([C@H](CCCNC(=N)CCl)NC(=O)c2cccc3c2C(=O)NC3)nc2ccccc21 [Compound 7h, N1-(3-oxoisoindoline)benzol-N5-(2-chloro-1-iminoethyl)-1-(1-isopropyl-benzo[d]imidazol-2-yl)-L-ornithine]	35 M⁻¹ s⁻¹	1.0 fold	112 M⁻¹ s⁻¹	3.2 fold	960 M⁻¹ s⁻¹	27 fold	282 M⁻¹ s⁻¹	8.0 fold	–	–
COc1cccc2[nH]c([C@H](CCCNC(=N)CF)NC(=O)c3cccc4c3C(=O)NC4)nc12 [Compound 7i, N1-(3-oxoisoindoline)benzol-N5-(2-fluoro-1-iminoethyl)-1-(4-methoxy-1H-benzo[d]imidazol-2-yl)-L-omithine]	36.3 M⁻¹ s⁻¹	1.0 fold	138 M⁻¹ s⁻¹	3.8 fold	1530 M⁻¹ s⁻¹	42 fold	292 M⁻¹ s⁻¹	8.0 fold	–	–
COc1cccc2[nH]c([C@H](CCCNC(=N)CCl)NC(=O)c3cccc4c3C(=O)NC4)nc12 [Compound 7j, N1-(3-oxoisoindoline)benzoyl-N5-(2-chloro-1-iminoethyl)-1-(4-methoxy-1H-benzo[d]imidazol-2-yl)-L-ornithine]	72.3 M⁻¹ s⁻¹	1.0 fold	502 M⁻¹ s⁻¹	6.9 fold	2180 M⁻¹ s⁻¹	30 fold	802 M⁻¹ s⁻¹	11 fold	–	–
COc1cccc2c1nc([C@H](CCCNC(=N)CF)NC(=O)c1cccc3c1C(=O)NC3)n2C [Compound 7k, N1-(3-oxoisoindoline)benzoyl-N5-(2-fluoro-1-iminoethyl)-1-(4-methoxy-1-methyl-benzo[d]imidazol-2-yl)-L-ornithine]	238 M⁻¹ s⁻¹	3.2 fold	73.8 M⁻¹ s⁻¹	1.0 fold	2150 M⁻¹ s⁻¹	29 fold	3500 M⁻¹ s⁻¹	47 fold	16.5 µM	0.0578 s⁻¹
COc1cccc2c1nc([C@H](CCCNC(=N)CCl)NC(=O)c1cccc3c1C(=O)NC3)n2C [Compound 7l, N1-(3-oxoisoindoline)benzoyl-N5-(2-chloro-1-iminoethyl)-1-(4-methoxy-1-methyl-benzo[d]imidazol-2-yl)-L-ornithine]	422 M⁻¹ s⁻¹	1.3 fold	332 M⁻¹ s⁻¹	1.0 fold	1300 M⁻¹ s⁻¹	3.9 fold	1300 M⁻¹ s⁻¹	3.9 fold	–	–
CCOc1cccc2c1nc([C@H](CCCNC(=N)CF)NC(=O)c1cccc3c1C(=O)NC3)n2C [Compound 7m]	16.5 M⁻¹ s⁻¹	1.0 fold	20 M⁻¹ s⁻¹	1.2 fold	1070 M⁻¹ s⁻¹	65 fold	1570 M⁻¹ s⁻¹	95 fold	55.2 µM	0.0868 s⁻¹
CCOc1cccc2c1nc([C@H](CCCNC(=N)CCl)NC(=O)c1cccc3c1C(=O)NC3)n2C [Compound 7n]	40.2 M⁻¹ s⁻¹	1.0 fold	108 M⁻¹ s⁻¹	2.7 fold	982 M⁻¹ s⁻¹	24 fold	1200 M⁻¹ s⁻¹	30 fold	–	–
COc1ccc2c(c1)nc([C@H](CCCNC(=N)CF)NC(=O)c1cccc3c1C(=O)NC3)n2C [Compound 7o, N1-(3-oxoisoindoline)benzoyl-N5-(2-fluoro-1-iminoethyl)-1-(5-methoxy-1-methyl-benzo[d]imidazol-2-yl)-L-ornithine]	20.5 M⁻¹ s⁻¹	1.2 fold	17.2 M⁻¹ s⁻¹	1.0 fold	2080 M⁻¹ s⁻¹	121 fold	1960 M⁻¹ s⁻¹	114 fold	20.7 µM	0.0403 s⁻¹
COc1ccc2c(c1)nc([C@H](CCCNC(=N)CCl)NC(=O)c1cccc3c1C(=O)NC3)n2C [Compound 7p, N1-(3-oxoisoindoline)benzoyl-N5-(2-chloro-1-iminoethyl)-1-(5-methoxy-1-methyl-benzo[d]imidazol-2-yl)-L-ornithine]	90.2 M⁻¹ s⁻¹	1.0 fold	218 M⁻¹ s⁻¹	2.4 fold	2210 M⁻¹ s⁻¹	25 fold	908 M⁻¹ s⁻¹	10 fold	–	–
CCn1c([C@H](CCCNC(=N)CF)NC(=O)c2cccc3c2C(=O)NC3)nc2c(OC)cccc21 [Compound 7q, N1-(3-oxoisoindoline)benzoyl-N5-(2-fluoro-1-iminoethyl)-1-(4-methoxy-1-ethyl-benzo[d]imidazol-2-yl)-L-ornithine]	26.3 M⁻¹ s⁻¹	1.0 fold	26.7 M⁻¹ s⁻¹	1.0 fold	998 M⁻¹ s⁻¹	38 fold	845 M⁻¹ s⁻¹	32 fold	–	–
CCn1c([C@H](CCCNC(=N)CCl)NC(=O)c2cccc3c2C(=O)NC3)nc2c(OC)cccc21 [Compound 7r, N1-(3-oxoisoindoline)benzoyl-N5-(2-chloro-1-iminoethyl)-1-(4-methoxy-1-ethyl-benzo[d]imidazol-2-yl)-L-ornithine]	35.5 M⁻¹ s⁻¹	1.0 fold	103 M⁻¹ s⁻¹	2.9 fold	1790 M⁻¹ s⁻¹	50 fold	657 M⁻¹ s⁻¹	19 fold	–	–
COc1ccc2[nH]c([C@H](CCCNC(=N)CF)NC(=O)c3cccc4c3C(=O)NC4)nc2c1 [Compound 7s, N1-(3-oxoisoindoline)benzoyl-N5-(2-fluoro-1-iminoethyl)-1-(5-methoxy-1H-benzo[d]imidazol-2-yl)-L-ornithine]	264 M⁻¹ s⁻¹	3.5 fold	76.2 M⁻¹ s⁻¹	1.0 fold	974 M⁻¹ s⁻¹	13 fold	415 M⁻¹ s⁻¹	5.4 fold	–	–

From US11208386B2, “Inhibitors of protein arginine deiminases (PADs) and methods of preparation and use thereof” (University of Massachusetts, priority 2016, dated 2021)
